Laboratory results from patent US20190365799A1, “THERAPIES FOR THE TREATMENT OF LIDOCAINE-INEFFECTIVE AND HYPOKALEMIC CONDITIONS” (AlkaliDx, Inc., priority 2016, published 2019).
Entries after “also recorded” stand apart in the source; their conditions may differ.

How the values were obtained:
[1] = oral potassium salt therapy, general statement; cited from earlier work
[2] = test system: patients with Lidocaine-Ineffective Conditions; test: Off-label treatment of patients with lidocaine-ineffective conditions with potassium or potassium-elevating drugs (clinical experience, patient reports); type: in vivo, human
Method: The condition is a chronic one, and patients benefit from increasing the serum potassium both prophylactically and acutely. I have discovered that patients with such “Lidocaine-Ineffective Conditions” that are treated with the compositions and methods of this invention (e.g., potassium supplementation or potassium-elevating agents) derive a significant therapeutic benefit.
Based on our research and discussions with us, patients with lidocaine-ineffective conditions have been treated with potassium and potassium-elevating drugs under the care of their personal physician in off-label use.

[3] = test system: sodium channel in the sensory neurons; conditions: local anesthesia; Rozanski et al. 1988, Nakai et al. 2000; cited from earlier work
[4] = clinical experience with 15 patients, potassium supplementation

## O=C([O-])[C@H](O)[C@@H](O)[C@H](O)[C@H](O)CO.[K+] [potassium gluconate]
[1]
  gastric tolerability: better tolerated

## [K+] [potassium]
[2]; [4]
  nervous system sensitivity: restore the normal level of nervous system sensitivity
  symptoms of ADHD: suppresses the symptoms of ADHD
[2]; off-label use under care of personal physician, anecdotal patient reports
  patient-reported effect of treatment: nothing short of miraculous; also recorded: stopped fighting with their teacher
[2]; off-label use, same dose, middle-aged person
  persistence of effect over time: continued to be as effective, at the same dose, after many months

## [Cl-].[K+] [potassium chloride]
[1]
  gastric tolerability: usually results in stomach upset and gastric pain; also recorded: regularly causes gastric upset

## CCN(CC)CC(=O)Nc1c(C)cccc1C [lidocaine]
[3]
  share of the population for which lidocaine is ineffective: 2.7-11%
